Like-named read-outs stand apart in the source and are kept apart here.
Key:
Pin1 [1] = biological target: T1, Pin1 (Homo sapiens, UniProt Q13526); experiment: SPR (Biacore S200, Pin1 immobilized on CM5); also PPIase assay IC50 […]; type: binding
T1 construct: human Pin1 with C-terminal His tag (pET-30a-pin1, E. coli BL21)

Pin1 [2] = biological target: T1, Pin1; experiment: as above; type: binding; remark: listed apart in the source

T1 sequence (Q13526 whole entry): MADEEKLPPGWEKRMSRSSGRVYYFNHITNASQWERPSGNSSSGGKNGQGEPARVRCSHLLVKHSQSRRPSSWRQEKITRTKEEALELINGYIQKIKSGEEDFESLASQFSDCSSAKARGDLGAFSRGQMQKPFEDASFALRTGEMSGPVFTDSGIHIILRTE

| Kd (Pin1 [1]) [µM] | Kd (Pin1 [2]) [µM] | Structure (SMILES) |
| --- | --- | --- |
| 9.79 |  | NS(=O)(=O)c1ccc(-c2[nH]c3ccc(Cl)cc3c2-c2ccc(Cl)cc2)cc1 [HWH8-33, 2-(4-aminosulfonylphenyl)-3-(4-chlorophenyl)-5-chloro-indole] |
|  | 4.87 | NS(=O)(=O)c1ccc(-c2[nH]c3ccc(Cl)cc3c2-c2cccc(Cl)c2)cc1 [HWH8-36, 2-(4-aminosulfonylphenyl)-3-(3-chlorophenyl)-5-chloro-indole] |

From publication PMC10083437, “Small molecules targeting Pin1 as potent anticancer drugs” (Frontiers in Pharmacology, 2023)
